Experimental findings from patent US20040197268A1, “Method of imaging amyloid deposits using substituted rhodanine derivatives” (priority 1999, published 2004) are described below.

Each structure is given as a SMILES string. Some results are limits rather than exact numbers.

As a reminder, the IC50 is the concentration that gives 50% inhibition. Usually melting point stands for the temperature, or range, at which the solid turns liquid.

In series [1] the target is T1, Aβ(1-40) (Homo sapiens, UniProt P05067).
T1 construct: Soluble Aβ(1-40) peptide (Bachem, Torrance, Calif.); purchased Bachem, Torrance, Calif
As to the kind of experiment: BASSR (Beta-Amyloid Self-Seeding Radioassay), inhibitors of self-seeded amyloid fibril growth. Type of series: biochemical. To be noted: 30 μM soluble Aβ(1-40) + 125I-labeled Aβ(1-40), pH 7.5, 37° C., 3 to 5 hours, filtration. On the procedure:
BASSR (Beta-Amyloid Self-Seeding Radioassay)
(§1) An assay for inhibitors of self-seeded amyloid fibril growth
Assay Buffer—50 mM sodium phosphate, pH 7.5, 100 mM NaCl, 0.02% NaN3, 1 M urea (filter and store at 4° C.)
Soluble Aβ(1-40) peptide (Bachem, Torrance, Calif.)—2.2 mg/mL in deionized H2O (stored in aliquots at −20° C., keep on ice when thawed) will self-seed after 1 week storage. Typically, the solution should be stored until no lag phase is seen in the assay.
^125I-labeled Aβ(1-40)—150K-350K cpm/μL in 100% acetonitrile—0.1% trifluoroacetic acid (TFA)—1% β-mercaptoethanol (aliquots stored at −20° C.). ^125I-labeled Aβ(1-40) can be made in accordance with the procedure set forth by H. Levine, III in Neurobiol. Aging, 16:755 (1995), which is hereby incorporated by reference, or this reagent may be purchased from Amersham, Arlington Heights, Ill.
Final assay conditions: 30 μM soluble Aβ(1-40) in deionized water in assay buffer+20-50K cpm ^125I-labeled Aβ(1-40) per assay. Compound to be tested is dissolved in dimethylsulfoxide (DMSO), typically 5-50 mM stock, such that the final concentration of DMSO is <1% v/v in the assay.
Assay: Reaction mixture for 50 assays (on ice) is comprised of 0.1-0.2 μL of […] ^125I-labeled Aβ(1-40)+1 μL of soluble Aβ(1-40)+13.5 μL assay buffer per assay. The following are the amounts of the components of the reaction mixture sufficient for 50 assay wells.
1) Prepare reaction mixture above by mixing components and storing on ice.
2) Pipet 14.5 μL of reaction mixture into each of 50 wells on a polypropylene U-bottom 96-well microtiter plate on ice (Costar 3794).
3) Add 1.7 μL of diluted compound to be tested to each well in a column of eight, including solvent control. Serial 3-fold dilutions from 1 mM (100 μM final) in assay buffer−urea=7 dilutions+zero. Each 96-well plate can therefore accommodate 11 samples+1 Congo Red control (0.039-5 μM final in 2-fold steps).
4) Seal the plate with aluminum film (Beckman 538619) and incubate for 10 minutes on ice.
5) Raise the temperature to 37° C. and incubate for 3 to 5 hours (depending on the lot of the peptide).
6) Remove the aluminum film and add 200 μL/well of ice cold assay buffer with urea, collecting the radiolabeled fibrils by vacuum filtration through 0.2 μm pore size GVWP filters in 96-well plates (Millipore MAGV N22, Bedford, Mass.). Determine the radioactivity of the filters using standard methods well-known to those skilled in the art.

Series [2] has as its target T2, Aβ(1-42) (Homo sapiens, UniProt P05067).
T2 construct: Required Aβ(1-42)(California Peptide) was dried from its hexafluoroisopropanol (HFIP) stock solution; purchased California Peptide
As to the kind of experiment: BATYM Assay (Aβ(1-42) aggregation, Thioflavin T fluorescence). Type of series: biochemical. As to conditions: Aβ 1-42 final concentration 100 μM, PBS pH 7.4, 37° C., 1 day, ThT fluorescence. On the procedure: Required Aβ(1-42)(California Peptide) was dried from its hexafluoroisopropanol (HFIP) stock solution. The Aβ(1-42) was dissolved in dimethylsulfoxide (DMSO) and then mixed with phosphate buffered saline, (PBS) (pH 7.4). The mixed Aβ(1-42) solution was filtered with a 0.2 μm Omnipore membrane syringe filter (Millipore, Bedford, Mass.). The compound to be tested in DMSO (50 times concentrate) was put into each well (0.5 μL/well) of a 96-well plate. The Aβ(1-42) solution was added into each well (24.5 μL/well). The plate was centrifuged at 1,000 g for 5 minutes and incubated at 37° C. for 1 day (Aβ 1-42; final concentration 100 μM).
After incubation Thioflavin T (ThT) (30 μM) solution in glycine-NaOH buffer (pH 8.5, 50 mM) was added into each well (250 μL/well), fluorescence was measured (ex. 440/20 nm; em 485/20 nm) using a fluorescence plate reader. The inhibitory activity was calculated as the reduction of fluorescence with the following formula:
inhibition (%)={(F(Aβ)−F(Aβ+compound)}/{F(Aβ)−F(solvent+compound)}×100
The IC50s were calculated by a curve fitting program using the following equation. The data were obtained from two different experiments in triplicate.
x=concentration of tested compound (M),

The target in series [3] is T3, beta amyloid peptide Aβ(1-40) (Homo sapiens, UniProt P05067).
T3 construct: 0.5 mg/mL AP (140) peptide in 20% HFIP+0.1 μL/assay radioiodinated ^125I Aβ(1-40)
As to the kind of experiment: BAPA (Beta-Amyloid Peptide Aggregation), pH 6.0. The format is biochemical. To be noted: Aβ(1-40) 33 μM, pH 6.0, 2 to 4 hours at room temperature, filtration. On the procedure:
BAPA (Beta-Amyloid Peptide Aggregation)
This assay is used to provide a measure of inhibition by a compound against the aggregation behavior of the beta amyloid peptide.
The purpose of this assay is to provide a higher volume method of assaying the amount of beta amyloid aggregation using an endpoint assay based on filtration. In this assay, hexafluoroisopropanol (HFIP) is used to break down the initial amyloid peptide to a monomer state and use a concentration of 33 μM which is high enough so that aggregation will occur at pH 6.0 in several hours.
β-Amyloid Peptide Aggregation, pH 6.0 (BAPA)
In a 96-well plate (Costar 3794), we add […] 50 mM Phosphate Buffer, pH 6.0, 10 μL 0.5 mg/mL AP (140) peptide in 20% HFIP+0.1 μL/assay radioiodinated ^125I Aβ(1-40) [^125I Aβ(1-40)], and 1 μL of the compound to be tested starting at 50 mM with a concentration of DMSO <1%. Then, we incubate for 2 to 4 hours at room temperature. We stop the reaction with […] of 50 mM phosphate buffer, pH 6.0, and filter it through a 0.2 μm 96-well filter plate (Millipore MAGU N22). We wash the filter plate with 100 μL of the same phosphate buffer. Aggregation was detected on a Microbeta counter after impregnating the filters with Meltilex (1450-441) and is corrected for background.

For series [4], the target named is T1, Aβ(1-40). As to the kind of experiment: BASST (Beta-Amyloid Self-Seeding, ThioflavinT), inhibitors of self-seeded amyloid fibril growth. The format is biochemical. As to conditions: 30 μM soluble Aβ(1-40), pH 7.5, 37° C., 3 to 5 hours, thioflavin T fluorescence. On the procedure: BASST (Beta-Amyloid Self-Seeding, ThioflavinT)
as §1
Assay Buffer—50 mM sodium phosphate, pH 7.5, 100 mM NaCl, 0.02% NaN3, 1 M urea (filter and store at 4° C.).
Soluble Aβ(1-40)—2.2 mg/mL in deionized H2O (store in aliquots at −20° C., keep on ice when thawed) will self-seed after 1 week storage. Typically, the solution should be stored until no lag phase is seen in the assay.
Final assay conditions: 30 μM soluble Aβ(1-40) in deionized water in assay buffer. Compound to be tested is dissolved in DMSO, typically 5-50 mM stock, such that the final concentration of DMSO is <1% v/v in the assay.
Assay: Reaction mixture for 50 assays (on ice) comprised of 1 μL of soluble Aβ(1-40)+13.5 μL assay buffer per assay. The following are the amounts of the components of the reaction mixture that result in each of the 50 assay wells.
1) Prepare the reaction mix above by mixing the components and storing on ice.
2) Pipet […] of reaction mixture into each of 50 wells of a polystyrene U-bottom 96-well microtiter plate (Corning 25881-96) on ice.
3) Add […] of diluted compound to be tested to each well in a column of eight, including solvent control. Serial 3-fold dilutions from 1 mM (100 μM final) in assay buffer−urea=7 dilutions+zero. Each 96-well plate can therefore accommodate 11 samples+1 Congo Red control (0.039-5 μM final in 2-fold steps).
4) Seal the plate with aluminum film and incubate for 10 minutes on ice.
5) Raise the temperature to 37° C. and incubate for 3 to 5 hours (depends on the lot of the peptide).
6) Remove the aluminum film and add 250 μL/well of 5 μM thioflavin T (ThT) [T-3516, Sigma-Aldrich] in 50 mM glycine-NaOH, pH 8.5. Read fluorescence on a plate reader (ex=440 nm/20 nm; em=485 nm/20 nm) within 5 minutes.

T3 sequence (P05067 672-711 limits assumed): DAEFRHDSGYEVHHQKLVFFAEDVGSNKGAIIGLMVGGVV
T1 sequence (P05067 672-711 limits assumed): as above
T2 sequence (P05067 672-713 limits assumed): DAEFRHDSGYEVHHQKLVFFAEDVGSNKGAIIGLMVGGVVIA

Compound `CCCCCCN(C)c1ccc(/C=C2\SC(=S)N(CCS(=O)(=O)NC)C2=O)cc1` [Example 2, (Z) 2-{5-[4-(Hexyl-methyl-amino)-benzylidene]-4-oxo-2-thioxo-thiazolidin-3-yl}-ethanesulfonic acid methylamide] had a melting point of 147 to 149 °C. In addition, in series [1], the IC50 was more than 100000 nM. This compound displayed an IC50 in series [2] of 2320 nM. Besides, in series [3], the IC50 was 7000 nM. The IC50 in series [4] is 800 nM.

In turn, `CCCCCCN(C)c1ccc(/C=C2\SC(=S)N(CCS(=O)(=O)NC(=O)C(F)(F)F)C2=O)cc1` [Example 3, (Z) 2-{5-[4-(Hexyl-methyl-amino)-benzylidene]-4-oxo-2-thioxo-thiazolidin-3-yl}-ethanesulfonic acid trifluoroacetyl-amide] returned a melting point of 158 to 162 °C. Besides, the IC50 in series [1] came out at 8000 nM. In series [2], this compound yielded an IC50 of 2240 nM. In addition, the IC50 in series [3] is more than 100000 nM. Moreover, in series [4], inhibition was half-maximal at 300 nM (IC50).

Regarding `CCCCCCN(C)c1ccc(/C=C2\SC(=S)N(CC(=O)NC)C2=O)cc1` [Example 4, (Z) 2-{5-[4(Hexyl-methyl-amino)-benzylidene]-4-oxo-2-thioxo-thiazolidin-3-yl}-N-methyl-acetamide], the melting point lay in the range of 228 to 230 °C. The IC50 in series [1] was more than 100000 nM. This compound also came in with an IC50 in series [2] of 8260 nM. Also, the IC50 in series [3] is 6000 nM. This compound returned an IC50 in series [4] of 3000 nM.

The compound `CCCCCCN(C)c1ccc(/C=C2\SC(=S)N(CC(=O)NS(C)(=O)=O)C2=O)cc1` [Example 5, (Z) N-({5-[4-(Hexyl-methyl-amino)-benzylidene]4-oxo-2-thioxo-thiazolidin-3-yl}-acetyl)methanesulfonamide] came in with a melting point of 227 to 230 °C. The IC50 in series [1] came out at 9000 nM. This compound also came in with an IC50 in series [2] of 1830 nM. The same compound yielded an IC50 in series [3] of more than 10000 nM. Besides, the IC50 in series [4] is 800 nM.

Compound `CCCCCN(CCCCC)c1ccc(/C=C2\SC(=S)N(CC(=O)NS(C)(=O)=O)C2=O)cc1` [Example 6, (Z) N-{5-[4-(Dipentylamino-benzylidene)4-oxo-2-thioxo-thiazolidin-3-yl]-acetyl}-methanesulfonamide] yielded a melting point of 134 to 138 °C. Moreover, in series [1], the IC50 is more than 100000 nM. The compound also showed an IC50 in series [2] of 2920 nM. The compound also registered an IC50 in series [3] of 3000 nM. Moreover, the IC50 in series [4] was 28500 nM.

For `CCCCCCN(C)c1ccc(/C=C2\SC(=S)N(CC(=O)NS(=O)(=O)C(F)(F)F)C2=O)cc1` [Example 7, (Z) C,C,C-Trifluoro-N-({5-[4-(hexyl-methyl-amino)-benzylidene]4-oxo-2-thioxo-thiazolidin-3-yl}-acetyl)methanesulfonamide], the melting point lay in the range of 94 to 97 °C. Also, the IC50 in series [1] amounted to 1000 nM. The compound also displayed an IC50 in series [2] of 1700 nM. The compound further gave an IC50 in series [3] of 70000 nM. Besides, in series [4], the IC50 worked out at 400 nM.

`CCCCCN(CCCCC)c1ccc(/C=C2\SC(=S)N(CC(=O)NS(=O)(=O)C(F)(F)F)C2=O)cc1` [Example 8, (Z) N-{5-[4-(Dipentylamino-benzylidene)-4-oxo-2-thioxo-thiazolidin-3-yl]-acetyl}-C,C,C-trifluoro-methanesulfonamide] displayed a melting point of 286 to 288 °C. For the same compound, the IC50 in series [1] is more than 100000 nM. The compound further came in with an IC50 in series [2] of 1960 nM. In addition, in series [3], 2500 nM corresponded to half-maximal inhibition (IC50). Moreover, it took 1000 nM to reach half-maximal inhibition in series [4] (IC50).

For `CCCCCCN(C)c1ccc(/C=C2\SC(=S)N(CC(=O)NS(=O)(=O)c3ccccc3)C2=O)cc1` [Example 9, (Z) N-({5-[4-(Hexyl-methyl-amino)benzylidene]-4-oxo-2-thioxo-thiazolidin-3-yl}-acetyl)benzenesulfonamide], the melting point lay in the range of 173 to 177 °C. The IC50 in series [1] was more than 100000 nM. In addition, half-maximal inhibition in series [2] (IC50) was put at 2150 nM. In series [3], this compound displayed an IC50 of 4000 nM. Also, in series [4], half-maximal inhibition (IC50) required 1750 nM.

`CCCCCCN(C)c1ccc(/C=C2\SC(=S)N(CCNS(C)(=O)=O)C2=O)cc1` [Example 10, (Z) N-(2-{5-[4-(Hexyl-methyl-amino)-benzylidene]-4-oxo-2-thioxo-thiazolin-3-yl}-ethyl)-methanesulfonamide] came in with a melting point of 150 to 153 °C. Besides, in series [1], the IC50 is more than 100000 nM. The IC50 in series [2] came to 2510 nM. Further, in series [3], the IC50 worked out at 8000 nM. Further, half-maximal inhibition in series [4] (IC50) required 1100 nM.
